# Test results as given in paper PMC8397425, “A Strategy to Conjugate Bioactive Fragments to Cytotoxic Diiron Bis(cyclopentadienyl) Complexes” (Organometallics, 2021).
# Marks after values point to notes of the source that are not given here.
# Experiments:
# [1] = Stability in D2O/DMSO at 37 °C by 1H NMR; assay type: physicochemical; conditions: 24 h at 37 °C
# Method: Conversely, [3–7]CF3SO3, containing either {Aryl–OCOAsp} or {Aryl-NHCOAsp} moieties, were stable under the same conditions. […] Complete conversion into the bis-hydroxide [8^2OH]^+ was achieved within 72 h. Similarly, [9,10]CF3SO3 undergo activation of the {C–Cl} bonds to give mixtures of the partially Cl/OH substituted species [9^OH]^+ and [10^OH]^+ and the fully substituted species [9^2OH]^+ and [10^2OH]^+.
# [2] = tested on: Human Embryonic Kidney 293T (HEK 293T) cell line; assay: MTT cytotoxicity, HEK 293T; assay type: cell-based; conditions: 72 h exposure, mean ± SD
# Excerpt: Human ovarian carcinoma (A2780 and A2780cisR) cell lines were obtained from the European Collection of Cell Cultures. The Human Embryonic Kidney 293T (HEK 293T) cell line was obtained from the ATCC (Sigma, Buchs, Switzerland). Penicillin–streptomycin, RPMI 1640 GlutaMAX (where RPMI = Roswell Park Memorial Institute), and DMEM GlutaMAX media (where DMEM = Dulbecco’s modified Eagle medium) were obtained from Life Technologies, and fetal bovine serum (FBS) was obtained from Sigma. The cells were cultured in RPMI 1640 GlutaMAX (A2780 and A2780cisR) and DMEM GlutaMAX (HEK 293T) media containing 10% heat-inactivated FBS and 1% penicillin–streptomycin at 37 °C and CO2 (5%). The A2780cisR cell line was routinely treated with cisplatin (2 μM) in the media to maintain cisplatin resistance. The cytotoxicity was determined using the 3-(4,5-dimethyl-2-thiazolyl)-2,5-diphenyl-2H-tetrazolium bromide (MTT) assay.[42] Cells were seeded in flat-bottomed 96-well plates as a suspension in a prepared medium (100 μL aliquots and approximately 4300 cells/well) and preincubated for 24 h. Stock solutions of compounds were prepared in DMSO and were diluted in the medium. The solutions were sequentially diluted to give a final DMSO concentration of 0.5% and a final compound concentration range of 0–200 μM. Cisplatin was tested as a positive (0–100 μM) control. The compounds were placed in the preincubated 96-well plates in 100 μL aliquots, and the plates were incubated for a further 72 h. MTT (20 μL, 5 mg/mL in Dulbecco’s phosphate buffered saline) was placed in the cells, and the plates were incubated for a further 4 h. The culture medium was aspirated, and the purple formazan crystals, formed by the mitochondrial dehydrogenase activity of vital cells, were dissolved in DMSO (100 μL/well). The absorbance of the resulting solutions, directly proportional to the number of surviving cells, was quantified at 590 nm using a SpectroMax M5e multimode microplate reader (using SoftMax Pro software, version 6.2.2). The percentage of surviving cells was calculated from the absorbance of wells corresponding to the untreated control cells. The reported IC50 values are based on the means from two independent experiments, each comprising four tests per concentration level.
# [3] = tested on: natural double-stranded DNA from calf thymus; assay: Ethidium bromide (EB) exchange test with DNA; assay type: binding; conditions: NaCl 0.1 M, NaCac 0.01 M, T = 25 °C; complex 1.4–135 μM
# Method: The ability of [4]CF3SO3 and [9]CF3SO3 to interact with natural DNA was studied using the ethidium bromide (EB) exchange test (Figure 6), with the concentration of the complexes beingin the 1.5–124 μM range for [4]CF3SO3 and 1.4–135 μM for [9]CF3SO3. Blank experiments were carried out with the two bioactive molecules and also with DMSO to check for solvent/dilution effects. […] However, EB exchange titrations are suitable to recognize fast noncovalent binding events, but not subsequent slow covalent binding. […]
# Ethidium bromide (EB, ≥98.0%), bovine serum albumin (BSA, lyophilized powder, crystallized, ≥98.0%), and natural double-stranded DNA from calf thymus (DNA, lyophilized powder, Na^+ salt in the form of fibers) were purchased from Merck, while anhydrous guanosine 5′-monophosphate disodium salt (Na2[GMP], >98.0%) was purchased from TCI Chemicals. […] Molar concentrations of solutions of EB (CEB), BSA (CBSA), and DNA (CDNA) were determined by absorbance measurements (εEB^480 nm = 5700 M^–1 cm^–1; εBSA^278 nm = 44000 M^–1 cm^–1; εDNA^260 nm = 13200 M^–1 cm^–1 for a concentration expressed in base pairs). […] In EB/DNA exchange experiments, EB was added to DNA until the fluorescence emission at λex = 520 nm/λem = 595 nm (diagnostic wavelengths for the DNA-intercalated EB only) started to reach the plateau (CEB = 5.60 × 10^–5 M, CDNA = 1.15 × 10^–4 M). […]
"stability (%), total percentage of diiron complexes with a chlorambucil-like group ([1]; D2O/DMSO 1/1 v/v)","stability (%), residual percent of complex ([1]; D2O/DMSO 2/1 v/v)",Substance,IC50 [2],interaction with natural DNA (EB displacement) [3]
88 ^b %,,[Fe2Cp2(CO)(μ-CO){μ-η^1:η^3-Cγ(3-C6H4NHC(=O)(CH2)3C6H4N(CH2CH2Cl)2)CβHCαNMe2}]CF3SO3 [[9]CF3SO3],9 ± 3 µM,interact weakly with natural DNA
,59%,[Fe2Cp2(CO)(μ-CO){μ-η^1:η^3-Cγ(3-C6H4OC(=O)C6H4OC(=O)Me)CβHCαNMe(Xyl)}]CF3SO3 [[4]CF3SO3],3.8 ± 0.7 µM,interact weakly with natural DNA
